For experiment [1], the system named is phospho-ERK in AsPC-1 (G12D) cells. The experiment in a line: Inhibition of KRas-mediated phosphorylation of ERK (in-cell western). Format: cell-based. The following applies: Homo sapiens, ASPC1, 3 h, 3 hours compound, phospho-ERK normalized to GAPDH. In a few lines:
(§1)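 After a 3-hour incubation with diluted compound in 0.5% DMSO, cells are fixed, permeabilized and stained overnight at 4° C for phosphorylated ERK and GAPDH.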

The subject of experiment [2] is phospho-ERK in MKN1 (WTdep) cells. The experiment is described as above. Format: cell-based. The following applies: Homo sapiens, MKN-1, 3 hours compound, phospho-ERK normalized to GAPDH. The procedure, abridged: as §1
Experiment [3] has as its system phospho-ERK in NCI-H460 (Q61H) cells. The experiment is described as above. Format: cell-based. The following applies: Homo sapiens, NCI-H460, 3 h, 3 hours compound, phospho-ERK normalized to GAPDH. In a few lines:
as §1

For experiment [4], the system named is phospho-ERK in NCI-H727 (G12V) cells. The experiment is described as above. The note with it: Homo sapiens, NCI-H727, 3 h, 3 hours compound, phospho-ERK normalized to GAPDH. The experiment is classed as cell-based. In a few lines: as §1
Experiment [5] has as its target KRas G12D (Homo sapiens, UniProt P01116, G12D). The experiment is described as follows: biochemical.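 Further: TR-FRET displacement binding assay on KRas, read after a one-hour incubation at room temperature, IC50 fitted from percent-of-control values.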
Protocol: (§2) The ability of a compound to bind to KRas was measured using a TR-FRET displacement assay. […] After a 60-minute incubation at room temperature, the reaction was measured using a BMG LABTECH CLARIO star Plus via TR-FRET. […] The POC values were fit to a 4-parameter IC50 equation and the IC50 value reported.
The target in experiment [6] is KRas G12V (Homo sapiens, UniProt P01116, G12V). The experiment is described as follows: biochemical.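 Further: KRas binding measured by TR-FRET displacement at room temperature, IC50 fitted from percent of control values.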
KRas G12V, sequence (P01116 1-169 isoform P01116-2 G12V): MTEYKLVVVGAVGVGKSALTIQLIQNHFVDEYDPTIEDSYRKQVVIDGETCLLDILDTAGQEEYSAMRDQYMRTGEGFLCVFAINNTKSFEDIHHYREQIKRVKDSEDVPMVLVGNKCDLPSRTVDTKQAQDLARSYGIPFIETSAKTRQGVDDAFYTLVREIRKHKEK
Protocol: as §2
Experiment [7] has as its target KRas G12R (Homo sapiens, UniProt P01116, G12R). The experiment is described as follows: biochemical.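 Further: TR-FRET displacement assay of compound binding to KRas, read after one hour at room temperature, potency from a four-parameter fit of percent-of-control values.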
Protocol: as §2
The test system of experiment [8] is pERK in MKN1 cells. The experiment is described as follows: Inhibition of KRas phosphorylation of ERK (Cisbio HTRF pERK assay). The note with it: Homo sapiens, MKN-1, 3 h, read-out: Inhibition (HTRF IC50) of KRas-mediated Phosphorylation of ERK, MKN1. For orientation: In TR-FRET formats the signal depends on donor and acceptor labels being close together.
The test system of experiment [9] is pERK in PSN1 cells. The description is as above. The following applies: Homo sapiens, PSN1, 3 h, read-out: Inhibition (HTRF IC50) of KRas-mediated Phosphorylation of ERK, PSN1.
For experiment [10], the system named is pERK in ASPC1 cells. The description is as above. The following applies: Homo sapiens, ASPC1, read-out: Inhibition (HTRF IC50) of KRas-mediated Phosphorylation of ERK, AsPC-1.
For experiment [11], the system named is pERK in H727 cells. The experiment is described as above. The following applies: Homo sapiens, NCI-H727, read-out: Inhibition (HTRF IC50) of KRas-mediated Phosphorylation of ERK, H727.
Experiment [12] concerns pERK in A549 cells. The description is as above. The note with it: Homo sapiens, A549, read-out: Inhibition (HTRF IC50) of KRas-mediated Phosphorylation of ERK, A549.
Protocol: To harvest cells from flask using 0.05% Trypsin/EDTA solution. Add 10 mL of media to stop trypsinizing. Pipette the cells into a conical bottom 50 mL centrifuge tube and centrifuge 5 min×1000 rpm. • 2. Re-suspend the cell pellet in media, take a cell count, and then adjust the cell density using fresh media. • 3. Seed 6,000 cells into cell culture plate with 50 μL media. […] Incubate cell plate overnight in a 37° C., 5% CO2 incubator. • Compound titrations • 1. Use Tecan to complete the compound addition. Compounds start from 10 uM top, 3-fold dilution, and 10 doses. The final DMSO concentration is 0.8%. Dispensed 0.2 uM Trametinib as Min control. • 2. Incubate cell plate for 3 hrs in the incubator. • Detection with cisbio pERK HTRF kit • 1. […] At the end of the compound treatment, flick-off the media. • 3. Add 35 μL of lysis buffer per well using a Multidrop Combi. Then place on a plate agitator shaking at 300 rpm at 4° C. for 40 mins. • 4. Make up the HTRF antibody buffer. For each assay plate, mix 50 μL of d2-conjugate antibody with 950 μL of detection buffer. Similarly, mix 50 μL of Cryptate antibody with 950 μL of detection buffer. Then mix the two diluted antibodies together. • 5. Dispense 3.4 μL the antibody buffer to wells of an empty assay plate. Seal the plate and centrifuge plate 30 sec×1000 rpm. • 6. At the end of the 4° C. lysis, centrifuge the lysate plates 3 mins×1500 rpm. • 7. Use the Bravo to transfer 13.6 μL of lysate from cell culture plate to assay plate.
Then incubate assay plate for 2 hrs at room temperature. […] At the end of incubation, read plate on the Envision after centrifuging plate 30 sec× • 1000 rpm.
Experiment [13] relates to pERK in H460 cells. The description is as above. The note with it: Homo sapiens, NCI-H460, read-out: Inhibition (HTRF IC50) of KRas-mediated Phosphorylation of ERK, H460.
In experiment [14] the test system is pERK in HCT116 cells. The description is as above. The note with it: Homo sapiens, HCT-116, read-out: Inhibition (HTRF IC50) of KRas-mediated Phosphorylation of ERK, HCT116.
Experiment [15] concerns pERK in H358 cells. The description is as above. The following applies: Homo sapiens, NCI-H358, read-out: Inhibition (HTRF IC50) of KRas-mediated Phosphorylation of ERK, H358.
In experiment [16] the target is KRas G12A (Homo sapiens, UniProt P01116, G12A). The experiment is described as follows: biochemical.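 Further: binding to KRas measured by TR-FRET displacement after one hour at room temperature, IC50 from a four-parameter fit of percent-of-control values.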
KRas G12A, sequence (P01116 1-169 isoform P01116-2 G12A): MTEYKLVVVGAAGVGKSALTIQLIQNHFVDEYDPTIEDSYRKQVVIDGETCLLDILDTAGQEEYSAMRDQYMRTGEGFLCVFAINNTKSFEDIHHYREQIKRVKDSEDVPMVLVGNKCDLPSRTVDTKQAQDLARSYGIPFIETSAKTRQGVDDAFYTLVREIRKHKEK
Protocol: as §2
Experiment [17] deals with KRas G12S (Homo sapiens, UniProt P01116, G12S). The experiment in a line: biochemical.
KRas G12S, sequence (P01116 1-169 isoform P01116-2 G12S): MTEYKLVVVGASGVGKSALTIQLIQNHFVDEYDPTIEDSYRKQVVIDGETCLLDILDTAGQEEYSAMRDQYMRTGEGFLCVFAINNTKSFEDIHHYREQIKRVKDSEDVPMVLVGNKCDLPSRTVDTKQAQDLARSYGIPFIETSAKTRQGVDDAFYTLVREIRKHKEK
Protocol: as §2
The target in experiment [18] is KRas G12C (Homo sapiens, UniProt P01116, G12C). The experiment is described as follows: biochemical.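 Further: binding to KRas assessed by TR-FRET displacement after one hour incubation at room temperature, potency fitted from percent-of-control values.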
KRas G12C, sequence (P01116 1-169 isoform P01116-2 G12C): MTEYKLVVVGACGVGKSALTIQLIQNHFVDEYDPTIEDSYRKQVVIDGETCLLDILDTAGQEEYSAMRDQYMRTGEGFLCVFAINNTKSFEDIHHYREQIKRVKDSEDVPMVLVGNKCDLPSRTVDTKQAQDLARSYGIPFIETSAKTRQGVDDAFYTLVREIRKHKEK
Protocol: as §2
Experiment [19] addresses KRas WT (Homo sapiens, UniProt P01116). The experiment in a line: biochemical.
Protocol: as §2

Usually IC50 stands for the concentration needed to halve the response being measured.

KRas G12R, sequence (P01116 1-169 isoform P01116-2 G12R): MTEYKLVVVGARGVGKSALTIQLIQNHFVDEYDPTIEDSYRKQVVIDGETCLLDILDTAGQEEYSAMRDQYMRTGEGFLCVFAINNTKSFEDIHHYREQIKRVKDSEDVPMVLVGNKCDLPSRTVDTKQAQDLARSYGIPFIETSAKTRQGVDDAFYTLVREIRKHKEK
KRas G12D, sequence (P01116 1-169 isoform P01116-2 G12D): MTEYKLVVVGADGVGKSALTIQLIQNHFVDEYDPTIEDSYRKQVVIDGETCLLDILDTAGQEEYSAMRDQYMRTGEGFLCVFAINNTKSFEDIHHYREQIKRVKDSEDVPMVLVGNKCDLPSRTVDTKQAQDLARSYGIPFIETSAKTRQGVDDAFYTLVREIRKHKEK
KRas WT, sequence (P01116 1-169 isoform P01116-2): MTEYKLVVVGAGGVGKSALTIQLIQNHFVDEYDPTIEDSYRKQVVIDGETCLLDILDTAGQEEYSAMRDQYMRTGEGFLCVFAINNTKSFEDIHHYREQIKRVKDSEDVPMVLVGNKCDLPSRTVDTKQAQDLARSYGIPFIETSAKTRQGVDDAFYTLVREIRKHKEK

Consider `CCc1c(F)ccc2cc(O)cc(-c3ncc4c(N5CCC[C@]6(CC(=O)N6)C5)nc(OC[C@@]56CCCN5C[C@H](F)C6)nc4c3F)c12` (single isomer, unassigned) [Example 194], for which the IC50 in [1] is 92 nM; in experiment [2], 7 nM; in experiment [3] it was 65 nM; in experiment [4] it was 89 nM; in [5], not above 2 nM; in experiment [6], not above 2 nM. Further, the IC50 was not above 2 nM in experiment [7]; 3 nM in [8]; 1350 nM in experiment [9]; 20 nM in [10]; 34 nM in [11]; 63 nM in [12]. In addition, the results for the IC50 in experiment [13], in experiment [14] and in [15] were 55 nM, 686 nM and 4 nM, respectively.

For the molecule `CCc1c(F)ccc2cc(O)cc(-c3ncc4c(N5CCCC(O)(C(F)F)C5)nc(OC[C@@]56CCCN5C[C@H](F)C6)nc4c3F)c12` (stereo partly shown) [Example 184], the IC50 in experiment [1] was 66 nM; in experiment [3] it was 30 nM; in experiment [4], 201 nM; in [5], not above 2 nM; in experiment [6], not above 2 nM; in experiment [7], 3 nM. Also, the IC50 in [8] was found to be 7 nM; in experiment [9], 1230 nM; in experiment [10] it was 7 nM; in experiment [11], 90 nM; in [12], 44 nM; in experiment [13] it was 39 nM. The IC50 in experiment [14] was determined as 91 nM; in experiment [15], 15 nM.

As for `CCc1c(F)ccc2cc(O)cc(-c3ncc4c(N5CC6C(=O)NC(=O)C6C5)nc(OC[C@@]56CCCN5C[C@H](F)C6)nc4c3F)c12` (stereo partly shown) [Example 197], the IC50 in [1] was 144 nM; in experiment [2], 11 nM; in experiment [3], 293 nM; in [4] it was 841 nM; in [5], not above 2 nM; in experiment [6] it was not above 2 nM. Moreover, the IC50 in experiment [7] is not above 2 nM; in [8], 23 nM; in experiment [9], not below 10000 nM; in experiment [10], 57 nM; in experiment [11], 348 nM; in [13] it was 183 nM. The IC50 was found to be 620 nM in experiment [14] and 112 nM in experiment [15].

As to `C#Cc1c(F)ccc2cc(O)cc(-c3ncc4c(N5CCOC[C@@](C)(O)C5)nc(OC[C@@]56CCCN5C[C@H](F)C6)nc4c3F)c12` [Example 201, (S)-4-(7-(8-ethynyl-7-fluoro-3-hydroxynaphthalen-1-yl)-8-fluoro-2-(((2R,7aS)-2-fluorohexahydro-1H-pyrrolizin-7a-yl)methoxy)pyrido[4,3-d]pyrimidin-4-yl)-6-methyl-1,4-oxazepan-6-ol], the IC50 is 91 nM in [1]; 2 nM in experiment [2]; 100 nM in [3]; 110 nM in experiment [4]; not above 2 nM in experiment [5]; not above 2 nM in experiment [6]. Further, the IC50 was not above 2 nM in experiment [7]; 15 nM in experiment [8]; 2390 nM in experiment [9]; 23 nM in [10]; 42 nM in experiment [11]; 223 nM in experiment [12]. The IC50 in experiment [13] is 118 nM; in experiment [14] it was 187 nM; in [15] it was 12 nM.

On to `CCc1c(F)ccc2cc(O)cc(-c3ncc4c(N5CCC[C@@]6(CNC(=O)N6)C5)nc(OC[C@@]56CCCN5C[C@H](F)C6)nc4c3F)c12` [Example 300, (R)-7-(7-(8-ethyl-7-fluoro-3-hydroxynaphthalen-1-yl)-8-fluoro-2-(((2R,7aS)-2-fluorohexahydro-1H-pyrrolizin-7a-yl)methoxy)pyrido[4,3-d]pyrimidin-4-yl)-1,3,7triazaspiro[4.5]decan-2-one], for which the IC50 in experiment [1] was 251 nM; in [2] it was 37 nM; in experiment [3], 71 nM; in experiment [4] it was 372 nM; in experiment [5], not above 2 nM; in [6], not above 2 nM. Moreover, the IC50 in [7] is not above 2 nM; in experiment [8], 7 nM; in [9], 1380 nM; in experiment [10], 38 nM; in experiment [11], 89 nM; in experiment [15] it was 14 nM.

Consider `CCc1c(F)ccc2cc(O)cc(-c3ncc4c(N5CCC[C@@](C)(O)C5)nc(OC[C@@]56CCCN5[C@@H](CO)CC6)nc4c3F)c12` [Example 301, (R)-1-(7-(8-ethyl-7-fluoro-3-hydroxynaphthalen-1-yl)-8-fluoro-2-(((3R,7aS)-3-(hydroxymethyl)tetrahydro-1H-pyrrolizin-7a(5H)-yl)methoxy)pyrido[4,3-d]pyrimidin-4-yl)-3-methylpiperidin-3-ol], for which the IC50 in experiment [1] was 216 nM; in [2] it was 15 nM; in [3], 416 nM; in experiment [4], 520 nM; in [5] it was not above 2 nM; in experiment [6], not above 2 nM. The IC50 was not above 2 nM in experiment [7]; 14 nM in [8]; 3930 nM in experiment [9]; 54 nM in experiment [10]; 199 nM in [11]; 216 nM in [13]. Moreover, the IC50 in experiment [14] worked out at 456 nM; in [15] it was 46 nM.

As to `CCc1c(F)ccc2cc(O)cc(-c3ncc4c(N5CCCCCC(S(C)(=O)=O)C5)nc(OC[C@@]56CCCN5C[C@H](F)C6)nc4c3F)c12` (stereo partly drawn) [Example 309, 5-ethyl-6-fluoro-4-(8-fluoro-2-(((2R,7aS)-2-fluorohexahydro-1H-pyrrolizin-7a-yl)methoxy)-4-(3-(methylsulfonyl)azocan-1-yl)pyrido[4,3-d]pyrimidin-7-yl)naphthalen-2-ol], the IC50 in [1] was 176 nM; in experiment [3], 59 nM; in experiment [4], 272 nM; in experiment [5], 4 nM; in experiment [6], not above 2 nM; in experiment [7], 3 nM. Further, the IC50 was found to be 2 nM in experiment [8]; 8330 nM in [9]; 54 nM in [10]; 37 nM in [11]; 113 nM in [12]; 57 nM in [13]. The IC50 in experiment [14] and in experiment [15] was 26 nM each time.

For `C#Cc1c(F)ccc2cc(O)cc(-c3ncc4c(N5C[C@@H]6C[C@H](C5)[C@H](O)C6)nc(OC[C@@]56CCCN5C[C@H](F)C6)nc4c3F)c12` [Example 388, (1R,5R,6R)-3-(7-(8-ethynyl-7-fluoro-3-hydroxynaphthalen-1-yl)-8-fluoro-2-(((2R,7aS)-2-fluorohexahydro-1II-pyrrolizin-7a-yl)methoxy)pyrido[4,3-d]pyrimidin-4-yl)-3-azabicyclo[3,2,1]octan-6-ol], the IC50 in experiment [3] is 16 nM; in experiment [4], 16 nM; in [5], not above 2 nM; in experiment [6] it was not above 2 nM; in [7] it was not above 2 nM; in [16], not above 2 nM. Moreover, the IC50 in experiment [17] was not above 2 nM; in experiment [18] it was not above 2 nM; in experiment [19], not above 2 nM; in experiment [8] it was 8 nM; in experiment [9], 409 nM; in [10] it was 14 nM. In addition, the IC50 was determined as 5 nM in experiment [11]; 18 nM in experiment [12]; 21 nM in experiment [13]; 9 nM in experiment [14]; 1 nM in experiment [15].

The values above are taken from US12398154B2, “Azaquinazoline pan-KRas inhibitors” (Mirati Therapeutics, Inc., priority 2020, dated 2025).
